# Values joined by “and” are separate entries in the source; they are usually repeats but may differ in a detail not shown here. Identical values can stand only once. Inconclusive results and toxic doses are left out.
# Test system: P388 leukemia ip, CD2F1 mice, survival T/C
# Test: NCI In Vivo Anticancer Drug Screen. Data for tumor model P388 Leukemia (intraperitoneal) in CD2F1 (CDF1) mice
# Conditions: endpoint: median survival time, higher = longer survival
# Procedure, shortened: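 Mice carrying the transplanted tumor received test compound or vehicle. Survival was recorded in each group, and the value is the treated-group measurement divided by that of the vehicle-treated control group.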
# [1] = dose: 100.0 mg/kg/injection, schedule: Q04DX002 (ip), vehicle: saline
# [2] = dose: 200.0 mg/kg/injection, schedule: Q04DX002 (ip), vehicle: saline
# [3] = dose: 400.0 mg/kg/injection, schedule: Q04DX002 (ip), vehicle: saline
# [4] = dose: 60.0 mg/kg/injection, schedule: Q01DX005 (ip), vehicle: saline with Tween-80
# [5] = dose: 12.5 mg/kg/injection, schedule: Q01DX009 (ip), vehicle: Klucel (hydroxypropylcellulose) (HPC)
# [6] = dose: 25.0 mg/kg/injection, schedule: Q01DX009 (ip), vehicle: Klucel (hydroxypropylcellulose) (HPC)
# [7] = dose: 50.0 mg/kg/injection, schedule: Q01DX009 (ip), vehicle: saline
# [8] = dose: 100.0 mg/kg/injection, schedule: Q01DX009 (ip), vehicle: saline
# [9] = dose: 200.0 mg/kg/injection, schedule: Q01DX009 (ip), vehicle: saline
# [10] = dose: 100.0 mg/kg/injection, schedule: Q04DX002 (ip), vehicle: saline with Tween-80
# [11] = dose: 200.0 mg/kg/injection, schedule: Q04DX002 (ip), vehicle: saline with Tween-80
# [12] = dose: 50.0 mg/kg/injection, schedule: Q01DX009 (ip), vehicle: Klucel (hydroxypropylcellulose) (HPC)
# [13] = dose: 100.0 mg/kg/injection, schedule: Q01DX009 (ip), vehicle: Klucel (hydroxypropylcellulose) (HPC)
# [14] = dose: 200.0 mg/kg/injection, schedule: Q01DX009 (ip), vehicle: Klucel (hydroxypropylcellulose) (HPC)
# [15] = dose: 50.0 mg/kg/injection, schedule: Q01DX009 (ip), vehicle: saline with Tween-80
# [16] = dose: 100.0 mg/kg/injection, schedule: Q01DX009 (ip), vehicle: saline with Tween-80
# [17] = dose: 200.0 mg/kg/injection, schedule: Q01DX009 (ip), vehicle: saline with Tween-80
# [18] = dose: 15.0 mg/kg/injection, schedule: Q01DX005 (ip), vehicle: saline
# [19] = dose: 30.0 mg/kg/injection, schedule: Q01DX005 (ip), vehicle: saline
# [20] = dose: 60.0 mg/kg/injection, schedule: Q01DX005 (ip), vehicle: saline
# [21] = dose: 100.0 mg/kg/injection, schedule: Q04DX003 (ip), vehicle: Klucel (hydroxypropylcellulose) (HPC)
# [22] = dose: 200.0 mg/kg/injection, schedule: Q04DX003 (ip), vehicle: Klucel (hydroxypropylcellulose) (HPC)
# [23] = dose: 400.0 mg/kg/injection, schedule: Q04DX003 (ip), vehicle: Klucel (hydroxypropylcellulose) (HPC)
# [24] = dose: 100.0 mg/kg/injection, schedule: Q04DX003 (ip), vehicle: saline
# [25] = dose: 200.0 mg/kg/injection, schedule: Q04DX003 (ip), vehicle: saline
# [26] = dose: 400.0 mg/kg/injection, schedule: Q04DX003 (ip), vehicle: saline
compound,measurement,setting,value
CC1(C)CC(=O)C2OC21 (centres undefined),T/C,[1],107 % of control and 95 % of control
same,T/C,[2],101 % of control
same,T/C,[3],106 % of control and 107 % of control
COc1ccc(C(=O)C2=C(C)Nc3ccc(Br)cc3S2)cc1,T/C,[4],101 % of control
same,T/C,"dose: 120.0 mg/kg/injection, schedule: Q01DX005 (ip), vehicle: saline with Tween-80",110 % of control
same,T/C,"dose: 240.0 mg/kg/injection, schedule: Q01DX005 (ip), vehicle: saline with Tween-80",105 % of control
O=C(O)CCCCCCCCCCNC(=O)CI,T/C,"dose: 6.25 mg/kg/injection, schedule: Q01DX009 (ip), vehicle: Klucel (hydroxypropylcellulose) (HPC)",107 % of control
same,T/C,[5],119 % of control
same,T/C,[6],119 % of control
CCCCCCCCCCCCS(=O)(=O)CC(Br)C(=O)c1ccco1 (centres undefined),T/C,[1],100 % of control
same,T/C,[2],100 % of control
same,T/C,[3],100 % of control
COP(=O)(CI)OC,T/C,[7],102 % of control
same,T/C,[8],99 % of control
same,T/C,[9],107 % of control
CN(C)N1Cc2ccccc2NC1=O,T/C,"dose: 50.0 mg/kg/injection, schedule: Q01DX005 (ip), vehicle: Klucel (hydroxypropylcellulose) (HPC)",102 % of control
same,T/C,"dose: 100.0 mg/kg/injection, schedule: Q01DX005 (ip), vehicle: Klucel (hydroxypropylcellulose) (HPC)",96 % of control
same,T/C,"dose: 200.0 mg/kg/injection, schedule: Q01DX005 (ip), vehicle: Klucel (hydroxypropylcellulose) (HPC)",110 % of control
O=C1NC(=O)N(/N=C/c2ccc(-c3ccc(Cl)c(Cl)c3)o2)C1O (centres undefined),T/C,"dose: 50.0 mg/kg/injection, schedule: Q04DX002 (ip), vehicle: saline with Tween-80",100 % of control
same,T/C,[10],99 % of control
same,T/C,[11],101 % of control
O=C(NC(ON1CCCCC1)C(=O)O)c1ccccc1 (centres undefined),T/C,[12],104 % of control
same,T/C,[13],102 % of control
same,T/C,[14],98 % of control
CC(=O)Sc1ccccc1C(=O)NC1CCCCC1,T/C,[15],114 % of control
same,T/C,[16],117 % of control
same,T/C,[17],114 % of control
CC(C)=CCc1cc(O)c(CC=C(C)C)cc1O,T/C,"dose: 25.0 mg/kg/injection, schedule: Q01DX009 (ip), vehicle: saline with Tween-80",101 % of control
same,T/C,[15],106 % of control
same,T/C,[16],96 % of control
same,T/C,[17],96 % of control
CC1=C/N\C(C#N)=C(C#N)/N=C/C(C)=C\N\C(C#N)=C(C#N)/N=C\1,T/C,[12],92 % of control
same,T/C,[13],105 % of control
same,T/C,[14],98 % of control
O=C(CCl)Nc1cccc(CCC(=O)c2ccccc2NC(=O)CCl)c1,T/C,[18],102 % of control
same,T/C,[19],106 % of control
same,T/C,[4],100 % of control
same,T/C,[20],100 % of control
COc1cc([N+](=O)[O-])ccc1N=Cc1cccs1,T/C,[7],97 % of control
same,T/C,[8],93 % of control
same,T/C,[9],101 % of control
N/C=N/O,T/C,"dose: 25.0 mg/kg/injection, schedule: Q01DX009 (ip), vehicle: saline",101 % of control
same,T/C,[7],101 % of control
same,T/C,[8],111 % of control and 122 % of control
same,T/C,"dose: 174.0 mg/kg/injection, schedule: Q01DX009 (ip), vehicle: saline",123 % of control
same,T/C,"dose: 260.0 mg/kg/injection, schedule: Q01DX009 (ip), vehicle: saline",90 % of control
same,T/C,"dose: 400.0 mg/kg/injection, schedule: Q01DX009 (ip), vehicle: saline",161 % of control
CC(C)(C)C1CCC(=NSC(c2ccccc2)(c2ccccc2)c2ccccc2)CC1 (centres undefined),T/C,[10],95 % of control
same,T/C,[11],87 % of control
same,T/C,"dose: 400.0 mg/kg/injection, schedule: Q04DX002 (ip), vehicle: saline with Tween-80",89 % of control
O=C(N/N=C/c1cc(Br)cc(Br)c1[O-])c1ccccc1.O=C(N/N=C/c1cc(Br)cc(Br)c1[O-])c1ccccc1.[Ni+2],T/C,"dose: 100.0 mg/kg/injection, schedule: Q01DX001 (ip), vehicle: saline with Tween-80",90 % of control
same,T/C,"dose: 200.0 mg/kg/injection, schedule: Q01DX001 (ip), vehicle: saline with Tween-80",90 % of control
same,T/C,"dose: 400.0 mg/kg/injection, schedule: Q01DX001 (ip), vehicle: saline with Tween-80",94 % of control
O=C1c2ccccc2C2CNC1(O)c1ccccc12 (centres undefined),T/C,"dose: 50.0 mg/kg/injection, schedule: Q01DX005 (ip), vehicle: saline with Tween-80",97 % of control
same,T/C,"dose: 100.0 mg/kg/injection, schedule: Q01DX005 (ip), vehicle: saline with Tween-80",97 % of control
same,T/C,"dose: 200.0 mg/kg/injection, schedule: Q01DX005 (ip), vehicle: saline with Tween-80",102 % of control
CC1=CC(=N\S(=O)(=O)c2ccccc2)/c2ccccc2/C1=N/S(=O)(=O)c1ccccc1,T/C,"dose: 12.5 mg/kg/injection, schedule: Q01DX001 (ip), vehicle: saline with Tween-80",104 % of control
same,T/C,"dose: 25.0 mg/kg/injection, schedule: Q01DX001 (ip), vehicle: saline with Tween-80",100 % of control
same,T/C,"dose: 50.0 mg/kg/injection, schedule: Q01DX001 (ip), vehicle: saline with Tween-80",95 % of control
CC(=N\NC(N)=S)/C(C)=N/Nc1ccccc1,T/C,[21],106 % of control
same,T/C,[22],100 % of control
same,T/C,[23],100 % of control
CC(C)(C)N=C(CCSc1ccccc1)Nc1ccccc1Cl,T/C,[15],108 % of control
same,T/C,[16],109 % of control
same,T/C,[17],113 % of control
O=C(O)Cc1ccc2c(c1)C(=O)c1ccccc1CO2,T/C,[15],94 % of control
same,T/C,[16],103 % of control
same,T/C,[17],100 % of control
Nc1nc(Sc2ccc([N+](=O)[O-])c3nonc23)c2[nH]cnc2n1,T/C,[5],115 % of control
same,T/C,[6],88 % of control
CCCCCCCNN=NCC(C)C(C)CC (centres undefined),T/C,[24],95 % of control
same,T/C,[25],95 % of control
same,T/C,[26],97 % of control
CC1=CC=c2ccc3c(c2[N-]1)[N-]C(C)=CC=3.CC1=CC=c2ccc3c(c2[N-]1)[N-]C(C)=CC=3.O=[N+]([O-])O.[Cu+],T/C,"dose: 6.25 mg/kg/injection, schedule: Q04DX002 (ip), vehicle: suspension in saline",101 % of control
same,T/C,"dose: 12.5 mg/kg/injection, schedule: Q04DX002 (ip), vehicle: suspension in saline",103 % of control
O=C(O)CCCOc1ccc(Cl)cc1Cl,T/C,[24],109 % of control
same,T/C,[25],100 % of control
same,T/C,[26],100 % of control
Clc1ccc(CN2COc3c(cc(Cl)c4cccnc34)C2)c(Cl)c1,T/C,[21],102 % of control
same,T/C,[22],87 % of control
same,T/C,[23],87 % of control
O=C(S)CC(O)(CCl)c1ccc(-c2ccccc2)cc1 (centres undefined),T/C,"dose: 100.0 mg/kg/injection, schedule: Q04DX002 (ip), vehicle: Klucel (hydroxypropylcellulose) (HPC)",113 % of control
same,T/C,"dose: 200.0 mg/kg/injection, schedule: Q04DX002 (ip), vehicle: Klucel (hydroxypropylcellulose) (HPC)",101 % of control
CC(C)[Si]1(C(C)C)N[Si](C(C)C)(C(C)C)N1,T/C,[18],115 % of control
same,T/C,[19],105 % of control
same,T/C,[20],98 % of control
same,T/C,"dose: 120.0 mg/kg/injection, schedule: Q01DX005 (ip), vehicle: saline",106 % of control
same,T/C,"dose: 240.0 mg/kg/injection, schedule: Q01DX005 (ip), vehicle: saline",97 % of control
CCOC(=O)/C=C/C(=O)O (tested in a mixture with another compound),T/C,[24],100 % of control
same,T/C,[25],98 % of control
same,T/C,[26],96 % of control
CCOC(=O)C1=C(c2ccccc2)N(C)c2ccccc2S1,T/C,"dose: 60.0 mg/kg/injection, schedule: Q01DX005 (ip), vehicle: saline + Tween-80 + alcohol",100 % of control
same,T/C,"dose: 120.0 mg/kg/injection, schedule: Q01DX005 (ip), vehicle: saline + Tween-80 + alcohol",103 % of control
same,T/C,"dose: 240.0 mg/kg/injection, schedule: Q01DX005 (ip), vehicle: saline + Tween-80 + alcohol",100 % of control

# Source: PubChem BioAssay AID330 (DTP/NCI, 2004)
